{
  "source": "patent US20260297081A1",
  "about": "“COMPOUNDS AND METHODS OF TREATING CANCERS” (Cullgen Inc., priority 2023, published 2026)",
  "target": "CDK4 (Homo sapiens, UniProt P11802+Q16531)",
  "sequence (P11802 2-303 limits assumed)": "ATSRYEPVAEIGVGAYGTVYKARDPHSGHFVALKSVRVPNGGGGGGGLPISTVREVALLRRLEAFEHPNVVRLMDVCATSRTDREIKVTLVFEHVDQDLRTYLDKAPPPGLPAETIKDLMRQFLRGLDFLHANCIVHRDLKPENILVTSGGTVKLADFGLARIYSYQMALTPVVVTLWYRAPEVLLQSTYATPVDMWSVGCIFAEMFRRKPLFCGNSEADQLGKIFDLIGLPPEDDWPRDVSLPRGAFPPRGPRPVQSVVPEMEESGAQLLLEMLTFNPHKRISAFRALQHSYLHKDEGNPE",
  "sequence (P24385 whole entry partner)": "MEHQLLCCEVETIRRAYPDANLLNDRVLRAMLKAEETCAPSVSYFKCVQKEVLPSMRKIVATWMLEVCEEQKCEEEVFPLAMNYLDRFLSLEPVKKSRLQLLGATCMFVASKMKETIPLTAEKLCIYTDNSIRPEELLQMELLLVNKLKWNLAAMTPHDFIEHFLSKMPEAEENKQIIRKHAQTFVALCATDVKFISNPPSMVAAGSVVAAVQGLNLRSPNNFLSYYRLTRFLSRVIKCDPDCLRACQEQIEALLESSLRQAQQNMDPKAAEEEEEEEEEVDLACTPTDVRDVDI",
  "sequence (Q16531 2-1140 limits assumed)": "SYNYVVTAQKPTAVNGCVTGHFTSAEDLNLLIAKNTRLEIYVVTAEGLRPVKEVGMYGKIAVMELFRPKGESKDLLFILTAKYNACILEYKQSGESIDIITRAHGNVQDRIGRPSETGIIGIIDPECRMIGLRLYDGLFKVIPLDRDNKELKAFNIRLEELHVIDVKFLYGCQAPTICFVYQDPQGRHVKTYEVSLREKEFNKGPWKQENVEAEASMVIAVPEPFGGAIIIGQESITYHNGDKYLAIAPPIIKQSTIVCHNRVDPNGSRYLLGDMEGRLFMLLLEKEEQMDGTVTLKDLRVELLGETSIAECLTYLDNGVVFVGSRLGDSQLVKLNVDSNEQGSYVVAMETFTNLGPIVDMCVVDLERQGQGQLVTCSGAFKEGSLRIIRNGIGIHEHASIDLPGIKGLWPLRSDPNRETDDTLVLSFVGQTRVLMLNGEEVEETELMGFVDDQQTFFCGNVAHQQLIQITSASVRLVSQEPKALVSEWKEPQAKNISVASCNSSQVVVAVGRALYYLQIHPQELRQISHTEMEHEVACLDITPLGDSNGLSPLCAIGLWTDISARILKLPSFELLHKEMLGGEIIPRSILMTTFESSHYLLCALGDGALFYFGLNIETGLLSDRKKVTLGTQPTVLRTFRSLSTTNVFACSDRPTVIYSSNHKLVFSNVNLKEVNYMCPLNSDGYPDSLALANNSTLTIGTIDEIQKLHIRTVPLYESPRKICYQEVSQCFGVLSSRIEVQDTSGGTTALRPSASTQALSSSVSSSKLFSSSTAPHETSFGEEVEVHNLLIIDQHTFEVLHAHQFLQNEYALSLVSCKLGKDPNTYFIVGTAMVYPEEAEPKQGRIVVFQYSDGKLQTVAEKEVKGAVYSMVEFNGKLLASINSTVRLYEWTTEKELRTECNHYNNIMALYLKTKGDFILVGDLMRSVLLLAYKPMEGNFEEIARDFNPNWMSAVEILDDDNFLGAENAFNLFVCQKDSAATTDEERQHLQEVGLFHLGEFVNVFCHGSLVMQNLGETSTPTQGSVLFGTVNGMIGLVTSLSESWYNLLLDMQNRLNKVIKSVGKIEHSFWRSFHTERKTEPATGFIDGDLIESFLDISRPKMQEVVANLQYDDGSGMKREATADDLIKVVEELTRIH",
  "assay": "CDK4 percentage degradation in Calu-1 cells (Table 6)",
  "format": "cell-based",
  "parameters": "Cells that express cyclin D1-3 and CDK4/6 proteins were treated with heterobifunctional compounds; endogenous in cells; host or cells: Calu-1",
  "settings": "16 hours; for inhibition at 0.04 µM: 40 nM; for inhibition at 0.2 µM: 200 nM",
  "method_in_brief": "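Calu-1 cells exposed to heterobifunctional compounds at 40 nM or 200 nM for 16 h. Cyclin D1 and CDK4 levels measured by Western blot of RIPA lysates (BCA-normalised loading), bands quantified by densitometry and expressed as percentage degradation.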",
  "data": [
    {"molecule": "[2H]C([2H])([2H])Nc1ccc(C(=O)Nc2cc(C)n(C)n2)c(NC2CN(C(=O)C(F)(F)CN3CCN(c4ccc(Nc5ncc6c(C)c(C(C)=O)c(=O)n(C7CCCC7)c6n5)nc4)CC3)C2)n1", "note": "[CPD-233, 2-((1-(3-(4-(6-((6-acetyl-8-cyclopentyl-5-methyl-7-oxo-7,8-dihydropyrido[2,3-d]pyrimidin-2-yl)amino)pyridin-3-yl)piperazin-1-yl)-2,2-difluoropropanoyl)azetidin-3-yl)amino)-N-(1,5-dimethyl-1H-pyrazol-3-yl)-6-((methyl-d3)amino)nicotinamide]", "values": [
      {"measurement": "inhibition at 0.04 µM", "value": "< 30", "unit": "%"},
      {"measurement": "inhibition at 0.2 µM", "value": "30 to 50", "unit": "%"}
    ]},
    {"molecule": "[2H]C([2H])([2H])Nc1ccc(C(=O)Nc2cc(C)on2)c(NC2CN(C(=O)C(F)(F)CN3CCN(c4ccc(Nc5ncc6c(C)c(C(C)=O)c(=O)n(C7CCCC7)c6n5)nc4)CC3)C2)n1", "note": "[CPD-234, 2-((1-(3-(4-(6-((6-acetyl-8-cyclopentyl-5-methyl-7-oxo-7,8-dihydropyrido[2,3-d]pyrimidin-2-yl)amino)pyridin-3-yl)piperazin-1-yl)-2,2-difluoropropanoyl)azetidin-3-yl)amino)-6-((methyl-d3)amino)-N-(5-methylisoxazol-3methyl-yl)nicotinamide]", "values": [
      {"measurement": "inhibition at 0.04 µM", "value": "< 30", "unit": "%"},
      {"measurement": "inhibition at 0.2 µM", "value": "< 30", "unit": "%"}
    ]},
    {"molecule": "CNc1ccc(C(=O)Nc2ccc(N(C)C)nn2)c(NC2CCC3(C2)CN(C(=O)CN2CCN(c4ccc(Nc5ncc6c(C)c(C(C)=O)c(=O)n(C7CCCC7)c6n5)nc4)CC2)C3)n1", "note": "(centres unmarked) [CPD-235, 2-((2-(2-(4-(6-((6-acetyl-8-cyclopentyl-5-methyl-7-oxo-7,8-dihydropyrido[2,3-d]pyrimidin-2-yl)amino)pyridin-3-yl)piperazin-1-yl)acetyl)-2-azaspiro[3.4]octan-6-yl)amino)-N-(6-(dimethylamino)pyridazin-3-yl)-6-(methylamino)nicotinamide]", "values": [
      {"measurement": "inhibition at 0.04 µM", "value": "< 30", "unit": "%"},
      {"measurement": "inhibition at 0.2 µM", "value": "50 to 80", "unit": "%"}
    ]},
    {"molecule": "[2H]C([2H])([2H])Nc1ccc(C(=O)Nc2cn(C)c(C3CC3)n2)c(NC2CCN(C(=O)CN3CCN(c4ccc(Nc5ncc6c(C)c(C(C)=O)c(=O)n(C7CCCC7)c6n5)nc4)CC3)CC2)n1", "note": "[CPD-236, 2-((1-(2-(4-(6-((6-acetyl-8-cyclopentyl-5-methyl-7-oxo-7,8-dihydropyrido[2,3-d]pyrimidin-2-yl)amino)pyridin-3-yl)piperazin-1-yl)acetyl)piperidin-4-yl)amino)-N-(2-cyclopropyl-1-methyl-1H-imidazol-4-yl)-6-((methyl-d3)amino)nicotinamide]", "values": [
      {"measurement": "inhibition at 0.04 µM", "value": "30 to 50", "unit": "%"},
      {"measurement": "inhibition at 0.2 µM", "value": "50 to 80", "unit": "%"}
    ]},
    {"molecule": "CNc1ccc(C(=O)Nc2cn(C(C)C)c(C)n2)c(NC2CC3(CC(NC(=O)CN4CCN(c5ccc(Nc6ncc7c(C)c(C(C)=O)c(=O)n(C8CCCC8)c7n6)nc5)CC4)C3)C2)n1", "note": "(centres unmarked) [CPD-238, 2-((6-(2-(4-(6-((6-acetyl-8-cyclopentyl-5-methyl-7-oxo-7,8-dihydropyrido[2,3-d]pyrimidin-2-yl)amino)pyridin-3-yl)piperazin-1-yl)acetamido)spiro[3.3]heptan-2-yl)amino)-N-(1-isopropyl-2-methyl-1H-imidazol-4-yl)-6-(methylamino)nicotinamide]", "values": [
      {"measurement": "inhibition at 0.04 µM", "value": "< 30", "unit": "%"},
      {"measurement": "inhibition at 0.2 µM", "value": "< 30", "unit": "%"}
    ]},
    {"molecule": "[2H]C([2H])([2H])Nc1ccc(C(=O)Nc2ccc(F)c(C3CC3)n2)c(NC2CC3(CC(NC(=O)CN4CCN(c5ccc(Nc6ncc7c(C)c(C(C)=O)c(=O)n(C8CCCC8)c7n6)nc5)CC4)C3)C2)n1", "note": "(centres unmarked) [CPD-239, 2-((6-(2-(4-(6-((6-acetyl-8-cyclopentyl-5-methyl-7-oxo-7,8-dihydropyrido[2,3-d]pyrimidin-2-yl)amino)pyridin-3-yl)piperazin-1-yl)acetamido)spiro[3.3]heptan-2-yl)amino)-N-(6-cyclopropyl-5-fluoropyridin-2-yl)-6-((methyl-da)amino)nicotinamide]", "values": [
      {"measurement": "inhibition at 0.04 µM", "value": "30 to 50", "unit": "%"},
      {"measurement": "inhibition at 0.2 µM", "value": "50 to 80", "unit": "%"}
    ]},
    {"molecule": "CNc1ccc(C(=O)Nc2cccc(C3CC3)n2)c(NC2CC(NC(=O)CN3CCN(c4ccc(Nc5ncc6c(C)c(C(C)=O)c(=O)n(C7CCCC7)c6n5)nc4)CC3)C2)n1", "note": "(centres unmarked) [CPD-240, 2-((3-(2-(4-(6-((6-acetyl-8-cyclopentyl-5-methyl-7-oxo-7,8-dihydropyrido[2,3-d]pyrimidin-2-yl)amino)pyridin-3-yl)piperazin-1-yl)acetamido)cyclobutyl)amino)-N-(6-cyclopropylpyridin-2-yl)-6-(methylamino)nicotinamide]", "values": [
      {"measurement": "inhibition at 0.04 µM", "value": "30 to 50", "unit": "%"},
      {"measurement": "inhibition at 0.2 µM", "value": "30 to 50", "unit": "%"}
    ]},
    {"molecule": "CNc1ccc(C(=O)Nc2ccc(N(C)C)nn2)c(NC2CC(NC(=O)C(C)(C)N3CCN(c4ccc(Nc5ncc6c(C)c(C(C)=O)c(=O)n(C7CCCC7)c6n5)nc4)CC3)C2)n1", "note": "(centres unmarked) [CPD-243, 2-((3-(2-(4-(6-((6-acetyl-8-cyclopentyl-5-methyl-7-oxo-7,8-dihydropyrido[2,3-d]pyrimidin-2-yl)amino)pyridin-3-yl)piperazin-1-yl)-2-methylpropanamido)cyclobutyl)amino)-N-(6-(dimethylamino)pyridazin-3-yl)-6-(methylamino)nicotinamide]", "values": [
      {"measurement": "inhibition at 0.04 µM", "value": "50 to 80", "unit": "%"},
      {"measurement": "inhibition at 0.2 µM", "value": "50 to 80", "unit": "%"}
    ]},
    {"molecule": "[2H]C([2H])([2H])Nc1ccc(C(=O)Nc2ccc(N(C)C)nn2)c(NC2CC(NC(=O)CN3CCN(c4ccc(Nc5ncc6c(C)c(C(C)=O)c(=O)n(C7CCCC7)c6n5)nc4)CC3)C2)n1", "note": "(centres unmarked) [CPD-245, 2-((3-(2-(4-(6-((6-acetyl-8-cyclopentyl-5-methyl-7-oxo-7,8-dihydropyrido[2,3-d]pyrimidin-2-yl)amino)pyridin-3-yl)piperazin-1-yl)acetamido)cyclobutyl)amino)-N-(6-(dimethylamino)pyridazin-3-yl)-6-((methyl-d3)amino)nicotinamide]", "values": [
      {"measurement": "inhibition at 0.04 µM", "value": "30 to 50", "unit": "%"},
      {"measurement": "inhibition at 0.2 µM", "value": "50 to 80", "unit": "%"}
    ]},
    {"molecule": "CNc1ccc(C(=O)Nc2ncc(C)o2)c(NC2CC3(CC(NC(=O)CN4CCN(c5ccc(Nc6ncc7c(C)c(C(C)=O)c(=O)n(C8CCCC8)c7n6)nc5)CC4)C3)C2)n1", "note": "(centres unmarked) [CPD-246, 2-((6-(2-(4-(6-((6-acetyl-8-cyclopentyl-5-methyl-7-oxo-7,8-dihydropyrido[2,3-d]pyrimidin-2-yl)amino)pyridin-3-yl)piperazin-1-yl)acetamido)spiro[3.3]heptan-2-yl)amino)-6-(methylamino)-N-(5-methyloxazol-2-yl)nicotinamide]", "values": [
      {"measurement": "inhibition at 0.04 µM", "value": "50 to 80", "unit": "%"},
      {"measurement": "inhibition at 0.2 µM", "value": "50 to 80", "unit": "%"}
    ]},
    {"molecule": "CNc1ccc(C(=O)Nc2nc(C)c(C)o2)c(NC2CC3(CC(NC(=O)CN4CCN(c5ccc(Nc6ncc7c(C)c(C(C)=O)c(=O)n(C8CCCC8)c7n6)nc5)CC4)C3)C2)n1", "note": "(centres unmarked) [CPD-247, 2-((6-(2-(4-(6-((6-acetyl-8-cyclopentyl-5-methyl-7-oxo-7,8-dihydropyrido[2,3-d]pyrimidin-2-yl)amino)pyridin-3-yl)piperazin-1-yl)acetamido)spiro[3.3]heptan-2-yl)amino)-N-(4,5-dimethyloxazol-2-yl)-6-(methylamino)nicotinamide]", "values": [
      {"measurement": "inhibition at 0.04 µM", "value": "50 to 80", "unit": "%"},
      {"measurement": "inhibition at 0.2 µM", "value": "50 to 80", "unit": "%"}
    ]},
    {"molecule": "[2H]C([2H])([2H])Nc1ccc(C(=O)Nc2ccc(N(C)C)nn2)c(NC2CN(C(=O)C(F)(F)CN3CCN(c4ccc(Nc5ncc6c(C)c(C(C)=O)c(=O)n(C7CCCC7)c6n5)nc4)CC3)C2)n1", "note": "[CPD-248, 2-((1-(3-(4-(6-((6-acetyl-8-cyclopentyl-5-methyl-7-oxo-7,8-dihydropyrido[2,3-d]pyrimidin-2-yl)amino)pyridin-3-yl)piperazin-1-yl)-2,2-difluoropropanoyl)azetidin-3-yl)amino)-N-(6-(dimethylamino)pyridazin-3-yl)-6-((methyl-d3)amino)nicotinamide]", "values": [
      {"measurement": "inhibition at 0.04 µM", "value": "< 30", "unit": "%"},
      {"measurement": "inhibition at 0.2 µM", "value": "< 30", "unit": "%"}
    ]},
    {"molecule": "[2H]C([2H])([2H])Nc1ccc(C(=O)Nc2ccc(N(C)C)nn2)c(NC2CC3(C2)CN(C(=O)C(F)(F)CN2CCN(c4ccc(Nc5ncc6c(C)c(C(C)=O)c(=O)n(C7CCCC7)c6n5)nc4)CC2)C3)n1", "note": "[CPD-249, 2-((2-(3-(4-(6-((6-acetyl-8-cyclopentyl-5-methyl-7-oxo-7,8-dihydropyrido[2,3-d]pyrimidin-2-yl)amino)pyridin-3-yl)piperazin-1-yl)-2,2-difluoropropanoyl)-2-azaspiro[3.3]heptan-6-yl)amino)-N-(6-(dimethylamino)pyridazin-3-yl)-6-((methyl-d3)amino)nicotinamide]", "values": [
      {"measurement": "inhibition at 0.04 µM", "value": "50 to 80", "unit": "%"},
      {"measurement": "inhibition at 0.2 µM", "value": "50 to 80", "unit": "%"}
    ]},
    {"molecule": "CC(=O)c1c(C)c2cnc(Nc3ccc(N4CCN(CC(=O)NCCC5CC(Nc6cc(Cl)ccc6C(=O)Nc6ccc(C)c(C7CC7)n6)C5)CC4)cn3)nc2n(C2CCCC2)c1=O", "note": "(centres unmarked) [CPD-255, 2-((3-(2-(2-(4-(6-((6-Acetyl-8-cyclopentyl-5-methyl-7-oxo-7,8-dihydropyrido[2,3-d]pyrimidin-2-yl)amino)pyridin-3-yl)piperazin-1-yl)acetamido)ethyl)cyclobutyl)amino)-4-chloro-N-(6-cyclopropyl-5-methylpyridin-2-yl)benzamide]", "values": [
      {"measurement": "inhibition at 0.04 µM", "value": "< 30", "unit": "%"},
      {"measurement": "inhibition at 0.2 µM", "value": "50 to 80", "unit": "%"}
    ]},
    {"molecule": "CC(=O)c1c(C)c2cnc(Nc3ccc(N4CCN(C(=O)NCCC5CC(Nc6cc(Cl)ccc6C(=O)Nc6ccc(C)c(C7CC7)n6)C5)CC4)cn3)nc2n(C2CCCC2)c1=O", "note": "(centres unmarked) [CPD-256, 4-(6-((6-Acetyl-8-cyclopentyl-5-methyl-7-oxo-7,8-dihydropyrido[2,3-d]pyrimidin-2-yl)amino)pyridin-3-yl)-N-(2-(3-((5-chloro-2-((6-cyclopropyl-5-methylpyridin-2-yl)carbamoyl)phenyl)amino)cyclobutyl)ethyl)piperazine-1-carboxamide]", "values": [
      {"measurement": "inhibition at 0.04 µM", "value": "< 30", "unit": "%"},
      {"measurement": "inhibition at 0.2 µM", "value": "< 30", "unit": "%"}
    ]},
    {"molecule": "CC(=O)c1c(C)c2cnc(Nc3ccc(N4CCN(CC(=O)NCCC5CC(Nc6cc(Cl)ccc6C(=O)Nc6ccc(N(C)C)nn6)C5)CC4)cn3)nc2n(C2CCCC2)c1=O", "note": "(centres unmarked) [CPD-257, 2-((3-(2-(2-(4-(6-((6-Acetyl-8-cyclopentyl-5-methyl-7-oxo-7,8-dihydropyrido[2,3-d]pyrimidin-2-yl)amino)pyridin-3-yl)piperazin-1-yl)acetamido)ethyl)cyclobutyl)amino)-4-chloro-N-(6-(dimethylamino)pyridazin-3-yl)benzamide]", "values": [
      {"measurement": "inhibition at 0.04 µM", "value": "< 30", "unit": "%"},
      {"measurement": "inhibition at 0.2 µM", "value": "30 to 50", "unit": "%"}
    ]}
  ]
}
